Measured values: PubChem BioAssay AID2060900 (Molecular Pharmacology Branch, DTP, NCI, 2025)
One block for each molecule: values may come before it.

Test system: 521955-158-R2-J5-PDC complex spheroids, viability
Assay: Anticancer human tumor 521955-158-R2-J5-PDC patient-derived pancreatic carcinoma cell line growth inhibition [RAS]
Details: for IC50: curve of first compound; for viability, T/C: stronger effect = lower value
In short: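 Tumour cells grown as complex spheroids with HUVEC endothelial cells and mesenchymal stem cells, treated with RAS pathway inhibitor combinations. Each agent spans half-log steps from near clinical Cmax, or 10 microM where Cmax is unknown.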

[1] = second compound 0.00316 µM, first compound 0.0316 µM
[2] = second compound 0.00316 µM, first compound 0.1 µM
[3] = second compound 0.00316 µM, first compound 0.316 µM
[4] = second compound 0.00316 µM, first compound 1 µM
[5] = second compound 0.01 µM, first compound 0.0316 µM
[6] = second compound 0.01 µM, first compound 0.1 µM
[7] = second compound 0.01 µM, first compound 0.316 µM
[8] = second compound 0.01 µM, first compound 1 µM
[9] = second compound 0.0316 µM, first compound 0.0316 µM
[10] = second compound 0.0316 µM, first compound 0.1 µM
[11] = second compound 0.0316 µM, first compound 0.316 µM
[12] = second compound 0.0316 µM, first compound 1 µM
[13] = second compound 0.1 µM, first compound 0.0316 µM
[14] = second compound 0.1 µM, first compound 0.1 µM
[15] = second compound 0.1 µM, first compound 0.316 µM
[16] = second compound 0.1 µM, first compound 1 µM
[17] = second compound 0.316 µM, first compound 0.0316 µM
[18] = second compound 0.316 µM, first compound 0.1 µM
[19] = second compound 0.316 µM, first compound 0.316 µM
[20] = second compound 0.316 µM, first compound 1 µM
[21] = second compound 1 µM, first compound 0.0316 µM
[22] = second compound 1 µM, first compound 0.1 µM
[23] = second compound 1 µM, first compound 0.316 µM
[24] = second compound 1 µM, first compound 1 µM
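Also: compound exposure lasted seven days before the viability read.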
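For viability, T/C in this document: spheroids also contain HUVEC endothelial cells and mesenchymal stem cells as stroma.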

IC50 (second compound 0.00316 µM): > 10000 nM
IC50 (second compound 0.01 µM): > 10000 nM
IC50 (second compound 0.0316 µM): > 10000 nM
IC50 (second compound 0.1 µM): 10000 nM
IC50 (second compound 0.316 µM): > 10000 nM
IC50 (second compound 1 µM): > 10000 nM
Structure (SMILES): NC1c2ccccc2OC12CCN(c1cnc3c(N4CCCc5ncccc54)n[nH]c3n1)CC2 (centres undefined) + C=CC(=O)N1CCN(c2nc(OCC3CCCN3C)nc3c(F)c(-c4nc(N)cc(C)c4C(F)(F)F)c(Cl)cc23)C(C)C1
viability, T/C [1]: 69.6%
viability, T/C [2]: 69.4%
viability, T/C [3]: 64.4%
viability, T/C [4]: 61.5%
viability, T/C (second compound 0.00316 µM, first compound 3.16 µM): 54.8%
viability, T/C (second compound 0.00316 µM, first compound 10 µM): 59.3%
viability, T/C [5]: 68%
viability, T/C [6]: 68%
viability, T/C [7]: 62.1%
viability, T/C [8]: 63.2%
viability, T/C (second compound 0.01 µM, first compound 3.16 µM): 53.7%
viability, T/C (second compound 0.01 µM, first compound 10 µM): 65.6%
viability, T/C [9]: 65.8%
viability, T/C [10]: 79.6%
viability, T/C [11]: 69.1%
viability, T/C [12]: 61.5%
viability, T/C (second compound 0.0316 µM, first compound 3.16 µM): 65.3%
viability, T/C (second compound 0.0316 µM, first compound 10 µM): 51.8%
viability, T/C [13]: 73%
viability, T/C [14]: 79.8%
viability, T/C [15]: 55.1%
viability, T/C [16]: 57.7%
viability, T/C (second compound 0.1 µM, first compound 3.16 µM): 51.8%
viability, T/C (second compound 0.1 µM, first compound 10 µM): 58.8%
viability, T/C [17]: 75.4%
viability, T/C [18]: 59.2%
viability, T/C [19]: 58.1%
viability, T/C [20]: 59.5%
viability, T/C (second compound 0.316 µM, first compound 3.16 µM): 46.1%
viability, T/C (second compound 0.316 µM, first compound 10 µM): 60.5%
viability, T/C [21]: 70.3%
viability, T/C [22]: 61.4%
viability, T/C [23]: 54.7%
viability, T/C [24]: 69.6%
viability, T/C (second compound 1 µM, first compound 3.16 µM): 60.4%
viability, T/C (second compound 1 µM, first compound 10 µM): 58.3%

IC50 (second compound 0.00316 µM): 136 nM
IC50 (second compound 0.01 µM): 225 nM
IC50 (second compound 0.0316 µM): 273 nM
IC50 (second compound 0.1 µM): 144 nM
IC50 (second compound 0.316 µM): 258 nM
IC50 (second compound 1 µM): 233 nM
Structure (SMILES): Nc1ccn(C2OC(CO)C(O)C2(F)F)c(=O)n1 (centres undefined) + C=CC(=O)N1CCN(c2nc(OCC3CCCN3C)nc3c(F)c(-c4nc(N)cc(C)c4C(F)(F)F)c(Cl)cc23)C(C)C1
viability, T/C (second compound 0.00316 µM, first compound 0.00316 µM): 94.2%
viability, T/C (second compound 0.00316 µM, first compound 0.01 µM): 88.7%
viability, T/C [1]: 65%
viability, T/C [2]: 59%
viability, T/C [3]: 36.6%
viability, T/C [4]: 12.9%
viability, T/C (second compound 0.01 µM, first compound 0.00316 µM): 94.2%
viability, T/C (second compound 0.01 µM, first compound 0.01 µM): 89%
viability, T/C [5]: 75.5%
viability, T/C [6]: 73.3%
viability, T/C [7]: 39.8%
viability, T/C [8]: 15.3%
viability, T/C (second compound 0.0316 µM, first compound 0.00316 µM): 93.2%
viability, T/C (second compound 0.0316 µM, first compound 0.01 µM): 93.8%
viability, T/C [9]: 72.4%
viability, T/C [10]: 67%
viability, T/C [11]: 52.7%
viability, T/C [12]: 13%
viability, T/C (second compound 0.1 µM, first compound 0.00316 µM): 119%
viability, T/C (second compound 0.1 µM, first compound 0.01 µM): 88.6%
viability, T/C [13]: 72.4%
viability, T/C [14]: 50.5%
viability, T/C [15]: 51.5%
viability, T/C [16]: 11.9%
viability, T/C (second compound 0.316 µM, first compound 0.00316 µM): 103%
viability, T/C (second compound 0.316 µM, first compound 0.01 µM): 93.4%
viability, T/C [17]: 77.1%
viability, T/C [18]: 70.1%
viability, T/C [19]: 49.6%
viability, T/C [20]: 11.7%
viability, T/C (second compound 1 µM, first compound 0.00316 µM): 106%
viability, T/C (second compound 1 µM, first compound 0.01 µM): 100%
viability, T/C [21]: 74.4%
viability, T/C [22]: 63%
viability, T/C [23]: 54.8%
viability, T/C [24]: 13%
